Patent US8247609B2, “Aminoacid derivatives containing a disulfanyl group in the form of mixed disulfanyl and aminopeptidase N inhibitors” (Pharamleads, priority 2005, dated 2012)
Read-outs that look alike come from different tables or passages of the source. Marks after values point to notes of the source that are not given here.

Columns and labels:
male OF1 mice [1] = test: Hot plate test (52° C., jump latency) in mice; format: in vivo, mouse; conditions: for ED50: Mus musculus
Experimental: Hot plate test: this test relates to the licking and jumping reflex in mice on a plate heated at 52° C. (measurement of jump latency in the examples given). The results are expressed in % of maximum possible effect (% MPE), i.e., expressed as a percentage of analgesia, using the following equation:
Maximum latency time=240 seconds.
The results are expressed in term of mean±SEM. The differences observed are considered significant when the values of p are less than 0.05. The test used is an ANOVA test with a multiple comparison test.
Compound 15 is dissolved in a water/mannitol mixture (50 mg/ml). Jump latency times are measured 10 min after the injections by intravenous route.
Compound 15 is dissolved in a ethanol/Cremophor® EL/water mixture. Jump latency times are measured 10 min after intravenous injection.
Compound 15 is dissolved in an ethanol/PEG400/water 10/40/50 mixture.
Compounds 15 and A are dissolved in an ethanol/Cremophor EL/water 10/10/80 mixture. Jump latency times are measured 10 min after intravenous injection.
The analgesia produced by morphine or compound 15 in mice (male OF1) in the hot plate test (52° C.) was measured. Morphine in H2O/NaCl, 9/1000) or compound 15 dissolved in the vehicle EtOH/Cremophor El/water (10/10/80) is injected by IV. The results are measured 10 minutes after injection and latency time is 240 seconds (equation given in examples 15 and 17).
The analgesia produced by Δ^9 THC in mice (male OF1) in the plate hot test (52° C.) was measured. Δ^9 THC, dissolved in the vehicle EtOH/Cremophor EL/water (10/10/80), is injected by IV route. The results are measured 10 minutes after injection and latency time is 240 seconds (equation given in examples 15 and 17).
This test relates to the licking and jumping reflex in mice on a plate heated at 52° C. The results are expressed in % of maximum possible effect (% MPE), i.e., expressed as a percentage of analgesia, using the following equation:
Maximum latency time=240 s.
The mice weigh 25-30 grams.
Jump latency is measured 10 minutes after intravenous injection.

Log Kow = format: physicochemical
[2] = system: mice inoculated in their right paw with NCTC 2472 cells; test: Osteosarcoma-induced thermal hyperalgesia, unilateral hot plate test; format: in vivo, mouse; conditions: for Antihyperalgesic effect when administered alone: compound 15 12.5 mg/kg 20 min before testing, or Gabapentin 6.25 mg/kg 60 min before testing
Description: The comparison and possible facilitation of compound 15 analgesic effect by Gabapentin was investigated on the animal model of bone cancer induced by intraosteal inoculation of NCTC2472 tumor cells (Honoré P. et al., Neuroscience 98 (2000), 585-588 Mendez L. et al. J. Neurosci. Methods 113 (2002), 91-97).
The methods used to measure the analgenisc effects (antihyperalgesia and allodynia) of various compounds of this animal model have been described in details and are used (Menendez L. et al. Brain Res. 969 (2003), 102-109) in these series of experiments.
Osteosarcoma-induced thermal hyperalgesia measured by the unilateral hot plate test was inhibited by the oral administration of compound 15 (25 mg/kg). This inhibitory effect peaked 20-40 min after compound 15 administration, disappearing at time 60 (FIG. 4A).
At this concentration the antagonist is unable to enter the brain supporting a peripheral analgesic effects of compound 15. ** p≦0.01. […]

male OF1 mice [3] = test: Hot plate test (52° C., jump latency) in mice; format: in vivo, mouse; conditions: after administration per os of 200 m/kg (FIG. 2b)
[4] = system: rat (male Sprague Dawley) with an inflamed paw; test: Vocalization threshold on paw pressure, carrageenan-inflamed paw; format: in vivo; conditions: 100 mg/kg per os, 180 min after carrageenan, measured 20 min after administration
Experimental: b) Antinociceptive effect of compound 15 (100 mg/kg par os) on vocalization threshold when pressure is applied to the paw of a rat (male Sprague Dawley) with an inflamed paw, inflammation being induced by intraplantar injection of carrageenan.
Compound 15 and a vehicle (ethanol/polyethylene glycol (PEG) 400/water, 10/40/50) are administered 180 min after intraplantar injection of carrageenan (1% in saline solution).
The baseline for vocalization threshold when pressure is applied to the paw is measured before inflammation (B) and for the inflamed paw 20 min after injection of compound 15 or the vehicle. The results are given in table 3 and are expressed as mean±SEM, n=10. The differences observed are considered significant when the values of p are less than 0.05.

Solubility in solvents = format: physicochemical
[5] = 1 mg/kg IV, 10 min after injection (Table 6)
[6] = 2.5 mg/kg IV, 10 min after injection (Table 6)
[7] = 5 mg/kg IV, 10 min after injection (Table 6)
[8] = 5 mg/kg IV, ethanol/Cremophor EL/water 10/10/80, 10 min after injection (Table 5)

Molecule: CN1CC[C@]23c4c5ccc(O)c4O[C@H]2[C@@H](O)C=C[C@H]3[C@H]1C5 [morphine, reference compound]
- % analgesia (male OF1 mice [1]; [5]): 45.5 ± 4.5 %
- % analgesia (male OF1 mice [1]; [6]): 66 ± 6.0 %
- % analgesia (male OF1 mice [1]; [7]): 100*** %
- ED50 (male OF1 mice [1]; iv, 10 min, read-out: ED50 (analgesic response)): 1.3 ± 0.2 mg/kg

Molecule: CSCCC(N)CSSCC(Cc1ccsc1)C(=O)NC(C)C(=O)OC(COC(C)=O)COC(C)=O.O=C(O)C(F)(F)F (centres unmarked) [Compound 12f, 1-(2-(1-(2-acetoxy-1-acetoxymethylethoxycarbonyl)-ethylcarbamoyl)-3-thiophen-3-ylpropyldisulfanylmethyl)-3-methylsulfanylpropyl-ammonium trifluoroacetate]
- Log Kow (Log Kow): 1.31

Molecule: 1-(2-(1-(1-ethoxycarbonyloxyethoxycarbonyl)-2-hydroxypropylcarbamoyl)-3-thiophen-3-ylpropyldisulfanylmethyl)-3-methylsulfanylpropyl-ammonium trifluoroacetate [Compound 12e]
- Log Kow (Log Kow): 0.76

Molecule: CCOC(=O)OC(C)OC(=O)CNC(=O)C(CSSCC(N)CCSC)Cc1ccccc1.O=C(O)C(F)(F)F (centres unmarked) [Compound 12k]
- Log Kow (Log Kow): 1.39

Molecule: CCOC(=O)OC(C)OC(=O)C(C)NC(=O)C(CSSCC(N)CCSC)Cc1ccsc1.O=C(O)C(F)(F)F (centres unmarked) [Compound 12c]
- Log Kow (Log Kow): 1.63

Molecule: NCC1(CC(=O)O)CCCCC1 [Gabapentin]
- Antihyperalgesic effect ([2]; 6.25 mg/kg i.p., 60 minutes after injection (FIG. 6B)): subeffective
- Antihyperalgesic effect ([2]; 12.5 mg/kg i.p., 60 minutes after injection): significant antihyperalgesic effect
- Antihyperalgesic effect ([2]; 25 mg/kg i.p., 40 and 60 min after injection (FIG. 6A)): clear antihyperalgesic effect
- Withdrawal latencies ([2]; 25 mg/kg i.p., 20 min after administration): No modification of withdrawal latencies
- Antihyperalgesic effect ([2]; 25 mg/kg i.p., 60 minutes after injection): completely suppressed the hyperalgesic effect
- Withdrawal latencies of contralateral paws ([2]; 6.25-25 mg/kg i.p.): None of these doses of Gabapentin modified the withdrawal latencies of contralateral paws
- Antihyperalgesic effect when administered alone [2]: do not produce any antihyperalgesic effect

Molecule: 1-(2-(1-ethoxycarbonylmethyloxycarbonylethylcarbamoyl)-3-thiophen-3-yl-propyldi sulfanylmethyl)-3-methylsulfanylpropyl-ammonium trifluoroacetate [Compound 12d]
- Log Kow (Log Kow): 1.35

Molecule: CSCCC(N)CSSCC(Cc1ccsc1)C(=O)NC(C)C(=O)OCC(COC(C)=O)OC(C)=O.O=C(O)C(F)(F)F (centres unmarked) [Compound 12a, 1-(2-(1-(2,3-diacetoxypropoxycarbonyl)-ethylcarbamoyl)-3-thiophen-3-ylpropyldisulfanylmethyl)-3-methylsulfanylpropyl-ammonium trifluoroacetate]
- Log Kow (Log Kow): 1.31

Molecule: CCOC(=O)OC(C)OC(=O)CNC(=O)C(CSSC[C@@H](N)CCSC)Cc1ccccc1 (some centres unmarked) [Compound 15]
- Persistence of analgesic effect (male OF1 mice [3]): at least two hours
- % analgesia (male OF1 mice [1]; [5]): 46.4 ± 5.6 %
- % analgesia (male OF1 mice [1]; [6]): 56.3 ± 6.9 %
- % analgesia (male OF1 mice [1]; 2.5 mg/kg IV, ethanol/Cremophor EL/water, 10 min after injection): 56.2 ± 6.9 %
- % analgesia (male OF1 mice [1]; 2.5 mg/kg IV, ethanol/Tween 20/water, 10 min after injection): 48.4 ± 10.2 %
- % analgesia (male OF1 mice [1]; 2.5 mg/kg IV, ethanol/Tween 80/water, 10 min after injection): 44.7 ± 6.2 %
- % analgesia (male OF1 mice [1]; [7]): 87.6 ± 4.6 %
- % analgesia (male OF1 mice [1]; [8]): 87.6 ± 4.6 %
- % analgesia (male OF1 mice [1]; 10 mg/kg IV, water/mannitol vehicle, 10 min after injection, male mice): 33.4 ± 7.5 %
- % analgesia (male OF1 mice [1]; 20 mg/kg IV, water/mannitol vehicle, 10 min after injection, male mice): 59.2 ± 9.6 %
- % analgesia (male OF1 mice [1]; 40 mg/kg IV, water/mannitol vehicle, 10 min after injection, male mice): 90.2 ± 7.0 %
- ED50 (male OF1 mice [1]; 10 min, IV, ethanol/Cremophor EL/water, 10 min after injection (FIG. 1), read-out: ED50 (analgesic response)): 1.9 ± 0.4 mg/kg
- ED50 (male OF1 mice [1]; 10 min, IV, water/mannitol vehicle, 10 min after injection, read-out: Effective dose 50, ED50): 16.1 mg/kg
- ED50 (male OF1 mice [1]; per os 20 min before test, ethanol/PEG400/water 10/40/50 (FIG. 2a), read-out: ED50 (analgesic effect)): 135 mg/kg
- Vocalization threshold [4]: 292.5 ± 20.1 g
- Time at which inhibitory effect disappears ([2]; 25 mg/kg oral): 60
- Time of peak inhibitory effect after administration ([2]; 25 mg/kg oral): 20 to 40 min
- Osteosarcoma-induced thermal hyperalgesia ([2]; 25 mg/kg oral (FIG. 4A)): inhibited
- Antihyperalgesic effect in presence of naloxone-methiodide ([2]; 25 mg/kg p.o. 20 min before testing, naloxone-methiodide 2 mg/kg i.p. 20 min before testing (FIG. 5)): completely inhibited
- Effect on thermal latencies, inoculated versus control paws ([2]; 25 mg/kg p.o., 20 min after administration (FIG. 4B)): exclusively increases the latencies measured in the inoculated right paws
- Antihyperalgesic effect when administered alone [2]: do not produce any antihyperalgesic effect
- Solubility in ethanol/Tween®/water solvents (Solubility in solvents): soluble

Molecule: CSCCC(N)CSSCC(Cc1ccccc1)C(=O)NC(C(=O)OC(COC(C)=O)COC(C)=O)C(C)O.O=C(O)C(F)(F)F (centres unmarked) [Compound 12j, 1-(2-(1-(2-acetoxy-1-acetoxymethyl-thoxycarbonyl)-2-hydroxypropylcarbamoyl)-3-phenylpropyldisulfanylmethyl)-3-methylsulfanylpropyl-ammonium trifluoroacetate]
- Log Kow (Log Kow): 0.44

Molecule: CSCCC(N)CSSCC(Cc1ccsc1)C(=O)NC(C)C(=O)OCCS(C)(=O)=O.O=C(O)C(F)(F)F (centres unmarked) [Compound 12b, 1-(2-(1-(2-methanesulfonylethoxycarbonyl)-ethylcarbamoyl)-3-thiophen-3-ylpropyldisulfanylmethyl)-3-methylsulfanylpropyl-ammonium trifluoroacetate]
- Log Kow (Log Kow): −0.13

Molecule: CSCCC(N)CSSCC(Cc1ccsc1)C(=O)NC(C)C(=O)OCC1OC(O)C(O)C(O)C1O.O=C(O)C(F)(F)F (centres unmarked) [Compound 12h, 1-(2-(1-(3,4,5,6-tetrahydroxytetrahydropyran-2-ylmethoxycarbonyl)ethylcarbamoyl)-3-thiophen-3-yl-propyldisulfanylmethyl)-3-methylsulfanylpropyl-ammonium trifluoroacetate]
- Log Kow (Log Kow): −1.15

Molecule: CSCCC(N)CSSCC(Cc1ccsc1)C(=O)NC(C)C(=O)OC(CO)CO.O=C(O)C(F)(F)F (centres unmarked) [Compound 12g, 1-(2-(1-(2-hydroxy-1-hydroxymethylethoxycarbonyl)-ethylcarbamoyl)-3-thiophen-3-ylpropyldisulfanylmethyl)-3-methylsulfanylpropyl-ammonium trifluoroacetate]
- Log Kow (Log Kow): −0.29

Molecule: CCCCCc1cc(O)c2c(c1)OC(C)(C)[C@@H]1CCC(C)=C[C@@H]21 [Δ^9 THC, Δ^9 tetrahydrocannabinol, reference compound]
- % analgesia (male OF1 mice [1]; 0.188 mg/kg IV, EtOH/Cremophor EL/water, 10 min after injection): 0.4 ± 3.9%
- % analgesia (male OF1 mice [1]; 0.375 mg/kg IV, EtOH/Cremophor EL/water, 10 min after injection): 18.2 ± 6.4%
- % analgesia (male OF1 mice [1]; 0.75 mg/kg IV, EtOH/Cremophor EL/water, 10 min after injection): 41.2 ± 12.7 %
- % analgesia (male OF1 mice [1]; 1.5 mg/kg IV, EtOH/Cremophor EL/water, 10 min after injection): 57.2 ± 10.9 %

Molecule: CSCCC(N)CSSCC(Cc1ccccc1)C(=O)NC(Cc1ccccc1)C(=O)OCc1ccccc1 (centres unmarked) [Compound A, reference compound]
- % analgesia (male OF1 mice [1]; [8]): 51.1 ± 7.6 %
- Solubility in aqueous or hydrophilic solvents (Solubility in solvents): poorly soluble

Molecule: CCOC(=O)OC(C)OC(=O)C(NC(=O)C(CSSCC(N)CCSC)Cc1ccccc1)C(C)O.O=C(O)C(F)(F)F (centres unmarked) [Compound 12i]
- Log Kow (Log Kow): 0.76
